Measurements published in patent publication US20260240846A1, “ZAK ALPHA KINASE (MAP3K20) INHIBITORS FOR USE IN THE TREATMENT OF ANEMIA” (UNIVERSIDAD DE MURCIA, priority 2023, published 2026).

How the values were obtained:
K562 cells = test: Erythroid differentiation assay in K562 cells (hemin; hemoglobin accumulation, western blot); assay type: cell-based, human
Experimental: FIG. 1. ZAKα/P38 signaling pathway is activated in K562 after erythroid differentiation and its inhibition facilitates terminal erythroid differentiation. K562 cells were pre-treated with 0.1 μM nilotinib (Nil) (A, C, D), 1 μM anisomycin (B) and/or the indicated concentrations of the […] CX-5461 for 24 h, and then differentiated with 50 μM hemin for another 24 h. Hemoglobin accumulation (A, B, D) and NLRP1, phosphorylated P38, GATA1, ZAKα and ACTB (A-C) amounts were then evaluated by western blot. Immunoblots are representative of 3 independent experiments. #1, ACTB; #2, GATA1.
FIG. 2. The ZAKα/P38 signaling pathways is activated in K562 after erythroid differentiation. K562 cells were pre-treated with 0.1 μM nilotinib for 24 h and then differentiated with 50 μM hemin for the indicated times. The amounts of NLRP1, GATA1, phosphorylated P38, total ZAKα, phosphorylated ZAKα (Phos-tag) and ACTB were then evaluated by western blot.
(§1) FIG. 10. Imatinib and dasatinib promote erythropoiesis in human and zebrafish. (A) K562 cells were pretreated with the indicated concentrations of nilotinib, imatinib or dasatinib for 24 h and then differentiated with 50 μM hemin for 24 h. The amounts of NLRP1, GATA1, phosphorylated P38, total ZAKα and ACTB were then evaluated by western blot. (B) Zebrafish larvae were treated from 1 to 2 dpf with the indicated concentrations of nilotinib, imatinib or dasatinib. Representative images and number of neutrophils in larvae of 2 dpf treated by bath immersion with the indicated concentrations of imatinib and dasatinib. Each dot represents one individual and the mean±SEM for each group is also shown. P values were calculated by one-way ANOVA and Tukey's multiple range test. n.s., non-significant. ***P<0.001; ****P<0.0001.
(§2) FIG. 11. Ponatinib and bosutinib promote erythropoiesis in human and zebrafish. (A) K562 cells were pretreated with the indicated concentrations of nilotinib, ponatinib and bosutinib for 24 h and then differentiated with 50 μM hemin for the indicated times. The amounts of NLRP1, total ZAKα, GATA1, phosphorylated P38 and ACTB were then evaluated by western blot. (B) Number of neutrophils in larvae of 2 dpf treated by bath immersion with the indicated concentrations of ponatinib and bosutinib. Each dot represents one individual and the mean±SEM for each group is also shown. P values were calculated by one-way ANOVA and Tukey's multiple range test. n.s., non-significant, *P<0.05. **P<0.01. ***P<0.001.
K562 cells (CRL-3343; American Type Culture Collection) were maintained in RPMI culture medium supplemented with 10% fetal calf serum (FCS), 2 mM Glutamine, and 1% penicillin-streptomycin (Life Technologies). Cells were maintained and subcultured before confluence every 72 h. For differentiation, cells were treated with 50 μM hemin (#16009-13-5, Sigma-Aldrich) in the presence of 0.1% DMSO alone or with the caspase-1 inhibitor VX-765 (100 μM), the tyrosine kinase inhibitor nilotinib (0.1 μM), the RNA polymerase I inhibitor CX-5461 (200 nM, 1 μM and 10 μM) (all from MedChemExpress). Cells were collected at different time points (0, 24, 48 hours post-hemin addition), centrifuged, washed twice with PBS, and stored at −80° C. for further analysis.
Cells were lysed in 50 mM Tris-HCl (pH 7.5), 150 mM NaCl, 1% (w/v) NP-40 and fresh protease inhibitor (1/20, #P8340, Sigma-Aldrich). Protein quantification was performed with the BCA kit using BSA as standard. Cell lysates ([…]) in SDS sample buffer were subjected to electrophoresis on a polyacrylamide gel and transferred to nitrocellulose membranes. The membranes were incubated for 1 h with TTBS containing 5% (w/v) skimmed dried milk powder or 2% (w/v) BSA. The membranes were immunoblotted in the same buffer 16 h at 4° C. with the different primary antibodies diluted 1/1000. The blots were then washed with TTBS and incubated for 1 h at room temperature with secondary HRP-conjugated antibodies diluted 2,500-fold in 5% (w/v) skimmed milk in TTBS. […]

zebrafish larvae = test: Chemical treatment of zebrafish larvae by bath immersion; counting of neutrophils and erythrocytes; assay type: in vivo, Zebrafish (Danio rerio H.)
Experimental: FIG. 3. ZAKα regulates hematopoiesis in zebrafish through the Nlrp1 inflammasome. Number of neutrophils (B, D, H), erythrocytes (F) and macrophages (J), and caspase-1 activity (K) in 2 dpf larvae either treated from 1 to 2 dpf by bath immersion with 1 μM nilotinib and/or 100 μM anisomycin (A-D) or obtained by injecting one-cell stage embryos with standard or zaka crRNAs/Cas9 complexes (E-K). Representative images of neutrophils (A, C, G), erythrocytes (E) and macrophages (I) are also shown. Each dot represents one individual and the mean±SEM for each group is also shown. P values were calculated using one-way ANOVA and Tukey's multiple range test (B) or Student's t-test (D, F, H, J, K). n.s., non-significant; *P<0.05; **P<0.01; ***P<0.001.
FIG. 6. NLRP1 is activated by phosphorylation of the linker domain after activation of ZAKα and pharmacological inhibition of this signaling pathway promotes erythropoiesis in DBA. (A-D) Number of neutrophils (A-C), and caspase-1 activity (D) in 2 dpf larvae obtained by injection of one-cell stage embryos with human NLRP1 (wild type-WT, S107A and S107D) and treated from 1 to 2 dpf by bath immersion with 1 μM nilotinib (B-D). Representative images of neutrophils (arrows) are also shown in C. (E, F) BMMCs from a DBA patient were incubated for 2 weeks in human methylcellulose complete medium at 37° C. in the presence or absence of the indicated concentrations of nilotinib, and colonies were counted using standard morphological criteria. Each dot represents one individual and the mean±SEM for each group is also shown. P values were calculated by one-way ANOVA and Tukey's multiple range test. n.s., non-significant; *P<0.05; **P<0.01; ***P<0.001; ****P<0.0001.
as §1, §2
Zebrafish (Danio rerio H.) were obtained from the Zebrafish International Resource Center and mated, staged, raised and processed as described in The Zebarfish Book. The lines Tg(mpx:eGFP)^t114, Tg(lyz:DsRED2)^n250, Tg(mfap4:mCherry)^ump6, Tg(gata1a:DsRed)^sd2 Tg(runx1:GAL4)^utn6), Tg(UAS-E1B:NTR-mCherry) and casper (mitfa^w2/w2; mpv17^a9/a9) were previously described. spint1a^hi2217Tg/hi2217Tg was isolated from insertional mutagenesis screens. The experiments performed comply with the Guidelines of the European Union Council (Directive 2010/63/EU) and the Spanish RD 53/2013. The experiments and procedures performed were approved by the Bioethical Committees of the University of Murcia (approval number #669/2020). […]

[1] = K562 cells, 0.1 μM nilotinib 24 h, then 50 μM hemin, western blot

Cc1cn(-c2cc(NC(=O)c3ccc(C)c(Nc4nccc(-c5cccnc5)n4)c3)cc(C(F)(F)F)c2)cn1 [nilotinib]
erythroid differentiation of K562 (K562 cells; 0.1 μM nilotinib 24 h, with or without 50 μM hemin 24 h (FIG. 1A)): strongly promoted erythroid differentiation of K562, even in the absence of hemin | haemoglobin accumulation (K562 cells; K562 cells, 0.1 μM nilotinib 24 h, then 50 μM hemin 24 h): increase in haemoglobin accumulation | hemin-induced phosphorylation of ZAKα (K562 cells; K562 cells, 0.1 μM nilotinib 24 h, then 50 μM hemin, Phos-tag western blot): strongly reversed | hemin-induced degradation of GATA1 (K562 cells; [1]): strongly reversed | hemin-induced phosphorylation of P38 (K562 cells; [1]): strongly reversed | expression of GATA1 (K562 cells; K562 cells, 0.1 μM nilotinib (FIGS. 1A and 2)): increased expression of GATA1 | accumulation of GATA1 in the presence of CX-5461 (K562 cells; K562 cells, 0.1 μM nilotinib plus CX-5461 24 h, then 50 μM hemin 24 h (FIG. 1C)): able to promote accumulation of GATA1 | abundance of ZAK alpha, phosphorylated ZAKα and P38, and NLRP1 (K562 cells; K562 cells, basal conditions, upon hemin-induced erythroid differentiation and upon anisomycin): Alter the abundance | neutrophilia in the Spint1a-deficient model of neutrophilic inflammation (zebrafish larvae; larvae 2 dpf, bath immersion 1 to 2 dpf, 1 μM nilotinib): reduced neutrophilia | neutrophilia induced by NLRP1 with phosphomimetic S107D mutation (zebrafish larvae; larvae expressing human NLRP1 S107D, 1 μM nilotinib 1 to 2 dpf): failed to reverse | neutrophilia induced by wild type NLRP1 (zebrafish larvae; larvae expressing human wild type NLRP1, 1 μM nilotinib 1 to 2 dpf): able to abrogate | erythropoiesis in zebrafish (zebrafish larvae; nilotinib (FIGS. 3E and 3F)): Promote erythropoiesis in zebrafish | neutrophil number (zebrafish larvae; wild type larvae 2 dpf, bath immersion 1 to 2 dpf, 1 μM nilotinib, 100 μM anisomycin): caused a decrease in neutrophil number
